Experimental data from publication PMC12040169 (PLOS Biology, 2025).

Assay: in vitro
Conditions: human, hela cells, % viability

| SMILES | viability at 28.5 h, 10 µM [%] | viability at 28.5 h, 10 µM (bulk resorufin, single well) [%] |
| --- | --- | --- |
| Nc1nc(CSc2nnc(-c3ccncc3)o2)nc(Nc2ccc(F)cc2)n1 [CBK266221] | 116 | – |
| O=C(NC(=S)Nc1ccc(OCc2ccccc2)cc1)c1cccnc1 [CBK266224] | 97.8 | – |
| CC(=O)c1cc2c(cc1NC(=O)CSc1ccccn1)OCO2 [CBK266225] | 94.2 | – |
| CC(Sc1ccc(Br)c2cccc(C(=O)O)c12)C(=O)O (centres unmarked) [CBK266226] | 97.4 | – |
| Cc1cc(C(F)F)n2nc(C(=O)NCc3ccccc3F)nc2n1 [CBK266228] | 97.2 | – |
| Cn1cc(C(CC(=O)O)C(=O)O)c2ccccc21 (centres unmarked) [CBK266231] | 98.9 | – |
| CCc1ccc(Oc2c[nH]nc2-c2ccc(OCc3cnn(-c4ccccc4)c3)cc2O)cc1 [CBK266233] | 91.4 | – |
| O=C(CCN1C(=O)c2cccc3cccc(c23)C1=O)Oc1ccc2c(c1)OCO2 [CBK266237] | 106 | – |
| CN1CCN(c2ccc(NC(=S)NC(=O)c3cc4ccccc4o3)cc2)CC1 [CBK266240] | 95.5 | – |
| COC(=O)c1ccccc1NC(=O)CN(C)S(=O)(=O)c1c(C)cc(C)cc1C [CBK266241] | 110 | – |
| COc1ccc(S(=O)(=O)N(C)CC(=O)Nc2cccc(C(F)(F)F)c2)cc1OC [CBK266242] | 95.5 | – |
| COc1ccc([N+](=O)[O-])cc1NC(=O)C1(c2ccc(OC)c(OC)c2)CCOCC1 [CBK266243] | 98.2 | – |
| CN1CCN(CC(=O)Nc2ccc(Cl)cc2C(=O)c2ccccc2)CC1 [CBK266246] | 91.8 | – |
| O=C(C1=C(O)C(=O)N(Cc2ccncc2)C1c1cccc(OCc2ccccc2)c1)c1cccs1 (centres unmarked) [CBK266247] | 102 | – |
| COC(=O)c1ccccc1NC(=O)CSc1nnc(-c2sc(N)nc2C)o1 [CBK266250] | 100 | – |
| Cc1cc(C(F)F)n2nc(C(=O)Nc3ccc(S(=O)(=O)NC45CC6CC(CC(C6)C4)C5)cc3)nc2n1 [CBK266251] | 96.2 | – |
| O=C1c2cccc3cccc(c23)C(=O)N1CCN1CCN(CC(O)COc2ccccc2)CC1 (centres unmarked) [CBK266255] | 97.4 | – |
| COc1ccc(NC(=N)Nc2nc(=O)cc(CSc3nc4ccccc4s3)[nH]2)cc1 [CBK266256] | 101 | – |
| COC(=O)c1cc(NC(=O)CC2Sc3ccccc3NC2=O)cc(C(=O)OC)c1 (centres unmarked) [CBK266260] | 99.6 | – |
| CC(=O)Nc1ccc(S(=O)(=O)Nc2ccc(-c3csc(C)n3)cc2)cc1 [CBK266261] | 85.7 | – |
| CC(Oc1ccccc1)c1nnc(SCC(=O)Nc2cc(Cl)c(Cl)cc2Cl)n1C (centres unmarked) [CBK266262] | 108 | – |

| SMILES | viability at 28.5 h, 10 µM [%] | viability at 28.5 h, 10 µM (bulk resorufin, single well) [%] |
| --- | --- | --- |
| NS(=O)(=O)c1ccc(NC(=S)NC(=O)c2ccc(Cl)cc2Cl)cc1 [CBK266265] | 94 | – |
| CN(C)S(=O)(=O)c1ccc(-c2nn(-c3ccccc3)cc2/C=C(\C#N)c2nc3ccccc3c(=O)[nH]2)cc1 [CBK266266] | 101 | – |
| N#C/C(=C\c1cn(-c2ccccc2)nc1-c1ccc(S(=O)(=O)N2CCCCC2)cc1)c1nc2ccccc2c(=O)[nH]1 [CBK266268] | 101 | – |
| Cc1ccc(S(=O)(=O)NCCn2cnc([N+](=O)[O-])n2)cc1 [CBK266270] | 96.3 | – |
| Cc1sc(NC(=S)NC(=O)C2CCCCC2)c(C(N)=O)c1C [CBK266273] | 97.3 | – |
| O=C(CSCc1c(Cl)cccc1Cl)Nc1ccc(S(=O)(=O)N2CCOCC2)cc1 [CBK266276] | 109 | – |
| O=C(CN(c1ccc(I)cc1)S(=O)(=O)c1ccccc1)NCC1CCCO1 (centres unmarked) [CBK266278] | 101 | – |
| Cc1ccc2nsnc2c1NC(=O)Cc1cccc2ccccc12 [CBK266279] | 98.8 | – |
| COc1ccc(S(=O)(=O)NCCSCc2cccc(Cl)c2)c(Cl)c1Cl [CBK266281] | 97.6 | – |
| O=C(Cc1cccc2ccccc12)NC(=S)Nc1ccc(S(=O)(=O)N2CCCCC2)cc1 [CBK266283] | 106 | – |
| COc1cc(S(=O)(=O)N2CCN(S(=O)(=O)c3cccc([N+](=O)[O-])c3)CC2)ccc1Cl [CBK266285] | 89.6 | – |
| O=C(Cc1cccc2ccccc12)Nc1ccc2oc(-c3ccccc3)nc2c1 [CBK266286] | 96.3 | – |
| CCOC(=O)c1cnc(SCc2nc(N)nc(Nc3ccc(C)cc3)n2)nc1N [CBK266292] | 115 | – |
| Cc1ccc(OCC(O)Cn2c(=N)n(Cc3ccccc3)c3ccccc32)cc1 (centres unmarked) [CBK266293C] | 91.7 | – |
| O=C(CNS(=O)(=O)c1ccc(Br)cc1)NCc1cccnc1 [CBK266295] | 97.2 | – |
| Cc1ccc(S(=O)(=O)NC(C)(C)CSc2nncn2N)cc1 [CBK266297] | 103 | – |
| Cc1ccc(S(=O)(=O)NCCSc2nnc(N)s2)cc1 [CBK266300] | 97.9 | – |
| Cc1cc2oc(C(=O)Nc3sc4c(c3C#N)CCCC4)c(C)c2cc1C [CBK266301] | 103 | – |
| Cc1cccc(Nc2[nH]c3cc(C)ccc3c2[N+](=O)[O-])c1 [CBK266303] | 81.9 | – |
| Nc1nnc(-c2ccc(Oc3nc(N4CCOCC4)nc(N4CCOCC4)n3)cc2)s1 [CBK266305] | 96.1 | – |
| O=S(=O)(NCC(Sc1ccc(F)cc1)c1ccccc1)c1ccc(Cl)cc1 (centres unmarked) [CBK266306] | 96.8 | – |

| SMILES | viability at 28.5 h, 10 µM [%] | viability at 28.5 h, 10 µM (bulk resorufin, single well) [%] |
| --- | --- | --- |
| O=C(O)CCc1c(-c2ccccc2)cc2ccccn12 [CBK266308] | 109 | – |
| O=C(O)c1cccc(CSc2nnc(-c3ccncc3)o2)c1 [CBK266310] | 106 | – |
| O=C1CC(c2nc3ccccc3n2CCc2ccccc2)CN1c1ccccc1 (centres unmarked) [CBK266311] | 101 | – |
| NC(=O)C1CCCN(S(=O)(=O)c2ccc(S(N)(=O)=O)cc2)C1 (centres unmarked) [CBK266312] | 96.2 | – |
| O=C(NCC1CCCO1)c1ccc(NC(=O)C2C3C=CC(C3)C2C(=O)O)cc1 (centres unmarked) [CBK266317] | 94.9 | – |
| Cc1nnc(SCc2cc(=O)nc(NC(=N)Nc3cccc(Cl)c3)[nH]2)s1 [CBK266318] | 75.5 | – |
| CC1CCc2c(sc(NC(=S)NC(=O)c3cc4ccccc4o3)c2C#N)C1 (centres unmarked) [CBK266319] | 101 | – |
| Nc1nnc(SCC(=O)N2CCN(C(c3ccccc3)c3ccccc3)CC2)s1 [CBK266320] | 99.2 | – |
| COc1ccc(CCN2C(=O)CC(Nc3ccc(N4CCOCC4)cc3)C2=O)cc1OC (centres unmarked) [CBK266322] | 97.7 | – |
| O=C(Cc1cccc2ccccc12)Nc1ccccc1C(=O)O [CBK266325] | 100 | – |
| CCOc1cc(C#N)cc(I)c1OCC(=O)O [CBK266326] | 96.9 | – |
| Cc1[nH]c2ccccc2c1C(=O)CSc1nnc(N)s1 [CBK266328] | 102 | – |
| CS(=O)(=O)N(CC(=O)N1CCN(C(c2ccccc2)c2ccccc2)CC1)c1cccc(F)c1 [CBK266330] | 105 | – |
| Nc1nnc(SCC(=O)Nc2ccc3c(c2)OCCO3)s1 [CBK266331] | 95.6 | – |
| COc1cc(Cl)cc(C2NC(=S)NC(c3ccccc3)=C2C(=O)c2ccccc2)c1OCC(=O)O (centres unmarked) [CBK266332] | 106 | – |
| CC1(C)CC(=O)C2=C(C1)Nc1nn(-c3ccccc3)c(O)c1C2c1cccs1 (centres unmarked) [CBK266333] | 94 | – |
| O=C(Nc1sc2c(c1C(=O)NCc1cccnc1)CCCC2)c1sc2ccccc2c1Cl [CBK266334] | 95.9 | – |
| CN(C)CCSc1nc2cc(Cl)ccc2o1 [CBK266337C] | 96.6 | – |
| N#C/C(=C\c1cn(-c2ccccc2)nc1-c1ccc(S(=O)(=O)N2CCOCC2)cc1)c1nc2ccccc2c(=O)[nH]1 [CBK266343] | 104 | – |
| Cc1sc(NC(=S)NC(=O)Cc2cccc3ccccc23)c(C(N)=O)c1C [CBK266344] | 91.4 | – |
| Cc1ccc(S(=O)(=O)NCCSc2nnc(Nc3ccccc3)s2)cc1 [CBK266345] | 106 | – |

| SMILES | viability at 28.5 h, 10 µM [%] | viability at 28.5 h, 10 µM (bulk resorufin, single well) [%] |
| --- | --- | --- |
| N#C/C(=C\c1cn(-c2ccccc2)nc1-c1cccc(S(=O)(=O)N2CCCCCC2)c1)c1nc2ccccc2c(=O)[nH]1 [CBK266347] | 103 | – |
| CCOC(=O)C1=C(c2ccccc2)Nc2ncnn2C1c1cccc(OC)c1OC (centres unmarked) [CBK266353] | 106 | – |
| Cc1ccc(C(=O)N2CCN(c3ccc(NC(=O)c4ccc(-c5cccc([N+](=O)[O-])c5)o4)cc3)CC2)cc1 [CBK266355] | 107 | – |
| O=C(O)c1[nH]nc2c1COc1ccccc1-2 [CBK266356] | 97.5 | – |
| N#C/C(=C\c1cn(-c2ccccc2)nc1-c1cccc(S(=O)(=O)N2CCOCC2)c1)c1nc2ccccc2c(=O)[nH]1 [CBK266357] | 98.1 | – |
| O=C1NC(=O)C(CCc2ccccn2)(Cc2cccc(Cl)c2Cl)C(=O)N1c1ccc(Br)cc1 (centres unmarked) [CBK266359] | – | 94.2 |
| Nn1cnnc1SC1CCCCC1NS(=O)(=O)c1ccccc1 (centres unmarked) [CBK266361] | 95.7 | – |
| CC(Oc1ccccc1)c1nnc(SCC(=O)Nc2ccc(Br)cc2F)n1C (centres unmarked) [CBK266364] | 101 | – |
| Cc1ccc(C)c(NC(=O)CSc2nnc(CCc3ccccc3)n2C)c1 [CBK266365] | 93.7 | – |
| Cc1ccc(S(=O)(=O)NC(C)(C)CSc2nncn2C)cc1 [CBK266366] | 104 | – |
| O=C(COc1ccc(-c2cnc3ccccc3n2)cc1)c1cccc([N+](=O)[O-])c1 [CBK266367] | 86.8 | – |
| O=C(O)c1c[nH]nc1-c1ccc(Br)cc1 [CBK266368] | 91.5 | – |
| c1ccc(-n2nnnc2CSc2nc3ccccc3s2)cc1 [CBK266372] | 102 | – |
| COc1ccc(C(=O)Nc2ccccc2-c2nc3ccccc3s2)cc1OC [CBK266376] | 93.9 | – |
| O=S(=O)(NC1CCCCC1Sc1nnc(Nc2ccccc2)s1)c1ccccc1 (centres unmarked) [CBK266378] | 96.7 | – |
| Cc1cc(C)c(S(=O)(=O)Nc2ccccc2C(=O)NCc2ccco2)c(C)c1 [CBK266382] | 98.2 | – |
| N#C/C(=C/c1ccc(-c2ccc(S(N)(=O)=O)cc2)o1)S(=O)(=O)c1ccc(Cl)cc1 [CBK266383] | 110 | – |
| Cc1ccc2nc(/C(C#N)=C/c3ccc(-c4ccc(S(N)(=O)=O)cc4)o3)[nH]c2c1 [CBK266386] | 94 | – |
| CC(C)(CSc1nnc(Nc2ccccc2)s1)NS(=O)(=O)c1ccc(Cl)cc1 [CBK266388] | 108 | – |
| CN1CCC(OC(=O)COc2ccc(Cl)cc2Cl)CC1 [CBK266389C] | 91 | – |
